These results are taken from patent US20200030236A1, “BIOPATCH, BIOHEATER, BIOSENSOR AND BIOELECTRONIC PATCH DEVICE” (SEOUL NATIONAL UNIVERSITY R&DB FOUNDATION, priority 2016, published 2020).

Each structure is given as a SMILES string.

This experiment concerns brain tumors. The experiment is described as follows: Size change in brain tumor and survival rate in rats having brain tumors. Format: in vivo. The following applies: (a) drug injected by intravenous injection, rats (FIGS. 27, 28). The text has this: FIGS. 27 to 29 show the result of comparing the size change in brain tumor and the survival rate according to four treatment methods applied to rats having brain tumors.

As for `COc1cccc2c1C(=O)c1c(O)c3c(c(O)c1C2=O)C[C@@](O)(C(=O)CO)C[C@@H]3O[C@H]1C[C@H](N)[C@H](O)[C@H](C)O1` [drug, doxorubicin], the “size change in brain tumor” value was “rapidly increases with time”.
